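Method: 48-hour compound exposure of cells in 96-well plates, five concentrations, linear interpolation of endpoints. GI50 = concentration required for 50% inhibition of growth. TGI: concentration producing complete growth inhibition.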
system: NCI-H460 lung; assay: NCI anticancer screen, dose series, 48 h

SMILES | TGI [µM] | GI50 [µM]
O=C1OC2CCCC[C@@H]2C2C[C@]34CCCCC3[C@@H](C(=O)O4)C12 (some centres not stated) | > 100 | 
CN(C)c1cc[c]([Sn]([c]2ccc(N(C)C)cc2)([c]2ccc(N(C)C)cc2)[c]2ccc(N(C)C)cc2)cc1 | 28.1 | 12
CCCSc1nc(COC(=O)NC)c(COC(=O)NC)n1C | > 100 | 
O=C1CCC(O)=C1N=Nc1ccccc1 | > 100 | 
C=C1CCC(CC[C@@H]2CC[C@]3(OC2)O[C@@]2(O)CC[C@]3(C)OC2(C)C)C(C)(C)[C@H]1C/C=C1/C(=O)OC[C@@H]1O (some centres not stated) | 15.1 | 
CCN(CC)c1ccc(N=Nc2ccc(-c3nc4ccc[n+](C)c4s3)cc2)cc1 | 21.5 | 
C[C@]12CC[C@@H]3c4cc(OCC(F)(F)F)c(O)cc4/C(=N/O)C[C@H]3[C@@H]1CC[C@@H]2O | 3.79 | 0.0362
NC(=O)NCc1c(C(N)=O)ncn1Cc1ccccc1 | > 100 | 
COc1cc(/C=C/c2ccc(OC)c(OC)c2)cc(OC)c1 | 73.6 | 
O=C1CSC(/C(=N/Nc2ccccc2)c2nc3ccccc3[nH]2)=N1 | > 100 | 
O=C(c1ccccc1)C1OC12C(=O)Nc1ccccc12 (configuration not stated) | > 100 | 
COc1ccc2nc(NC(=O)C(=O)C(C#N)c3ccc([N+](=O)[O-])cc3)sc2c1 (configuration not stated) | > 100 | 
COc1cccc(C#Cc2ccccc2C#CCCCCO)c1 | 34 | 16.1
O=C(O)[C@H](NS(=O)(=O)c1ccc([N+](=O)[O-])cc1)c1ccccc1 | > 100 | 
S=C1OC2CCCC[C@H]2O1 (some centres not stated) | > 100 | 
O=C1/C(=C/c2cccc([N+](=O)[O-])c2)COc2ccc(Br)cc21 | > 100 | 

SMILES | TGI [µM] | GI50 [µM]
CSC(C1c2ccccc2N(c2ccc(C)cc2)c2[nH]c(=O)n(C)c(=O)c21)S(=O)(=O)c1ccc(C)cc1 (configuration not stated) | > 100 | 
CCOC(=O)NC(=O)c1cn(CCCOC(=O)CCCCCCCCCCC(=O)OCCCn2cc(C(=O)NC(=O)OCC)c(=O)[nH]c2=O)c(=O)[nH]c1=O | > 100 | 
COc1cc(/C=C(\C#N)c2ccccc2)cc(OC)c1 | > 100 | 
N#Cc1cccnc1Cl | > 100 | 
CC(=O)N[C@H]1CSSC[C@@H](C(N)=O)NC(=O)[C@H](C(C)C)NC(=O)[C@H](C)NC(=O)[C@H](Cc2cnc[nH]2)NC1=O | > 100 | > 100
CCCCCCCCCCCC(=O)OCC1OC(OC)C(NC(=O)N(CCCl)N=O)C(O)C1O (configuration not stated) | 20.5 | 
C=CC/C=C/C/C=C/CCCCCCCc1cccc(O)c1C(=O)O | > 100 | 
COc1ccc(OC)c2c(C(=O)O)c(Cc3ccccc3)ccc12 | > 100 | 
O=C(Nc1c(Cl)cc([N+](=O)[O-])cc1Cl)C(=O)C(C1OC(=O)c2ccccc21)[N+](=O)[O-] (configuration not stated) | > 100 | 
Cc1c(C(=O)/C=C/c2ccccc2)[n+](=O)c2ccccc2n1[O-] | 35.6 | 
N#CC1CC2(C1)OCCS2 (configuration not stated) | > 100 | 
COc1cc(NC(C)CCCN)c2nccc(C)c2c1 (configuration not stated) | 54.7 | 
C1C[OH+]CC[OH+]CC[OH+]CC[OH+]CC[OH+]1.[Cl-].[V] | > 100 | 46.2
CCCCCCCCCCCCCCCCCCOc1ccccc1CC(=O)OCC[N+]1(C)CCCC1 | 4.65 | 2.15
CC(=O)C(=CN1CCN(C(=O)c2ccco2)C1=S)C(C)=O | 3.42 | 1.5
CCOc1cc(C(C)(C)C)ccc1C1=N[C@@](C)(c2ccc(Cl)cc2)[C@@](C)(c2ccc(Cl)cc2)N1C(=O)N1CCN(CCCS(C)(=O)=O)CC1 | 11.8 | 0.895

system: HS 578T breast; assay: NCI anticancer screen, dose series, 48 h

SMILES | GI50 [µM] | TGI [µM]
Cc1ccc(-c2nc3ccc(Cl)cc3c(=O)n2N2C(=O)CSC2c2ccccc2Cl)cc1 (configuration not stated) | 2.62 | 17.2
C#Cc1c(I)n(C2OC(CO[Si](C)(C)C(C)(C)C)C3OC(C)(C)OC32)c(=O)[nH]c1=O (configuration not stated) | 19.7 | 66.8
C=C1CCC(CC[C@@H]2CC[C@]3(OC2)O[C@@]2(O)CC[C@]3(C)OC2(C)C)C(C)(C)[C@H]1C/C=C1/C(=O)OC[C@@H]1O (some centres not stated) |  | 28.8
COc1cc(/C=C/c2ccc(OC)c(OC)c2)cc(OC)c1 |  | 89.8
CN(C)CCN1C(=O)c2ccc3c4c(ccc(c24)C1=O)C(=O)N(CCN=C=S)C3=O | 0.127 | 0.68
COc1cccc(C#Cc2ccccc2C#CCCCCO)c1 | 22.9 | 56.9
COc1cc(NC(C)CCCN)c2nccc(C)c2c1 (configuration not stated) |  | 64.3
CCCCCCCCCCCCCCCCCCOc1ccccc1CC(=O)OCC[N+]1(C)CCCC1 | 2.41 | 7.01
CCOc1cc(C(C)(C)C)ccc1C1=N[C@@](C)(c2ccc(Cl)cc2)[C@@](C)(c2ccc(Cl)cc2)N1C(=O)N1CCN(CCCS(C)(=O)=O)CC1 | 9.26 | 35.2

system: UACC-62 melanoma; assay: NCI anticancer screen, dose series, 48 h

SMILES | TGI [µM] | GI50 [µM]
O=C1[C@@H]2C(c3ccccc3F)=NO[C@@H]2C(=O)N1c1ccc(Cc2ccc(N3C(=O)[C@H]4C(c5ccccc5F)=NO[C@H]4C3=O)cc2)cc1 | > 100 | 
C=CCc1ccc(Oc2cc(CC=C)c3c(c2O)O[C@@H](CO)[C@H]3c2ccc(O)c(-c3cc(CC=C)ccc3O)c2)cc1 | 85 | 
Cn1c2ccccc2c(=O)c2ccc(Cl)cc21 | > 10 | 
O=C(NCO)NCOCn1c(=O)n(CO)c(=O)n(CO)c1=O | 36.8 | 
Cc1ccc(-c2nc3ccc(Cl)cc3c(=O)n2N2C(=O)CSC2c2ccccc2Cl)cc1 (configuration not stated) | > 100 | 25.8
C#Cc1c(I)n(C2OC(CO[Si](C)(C)C(C)(C)C)C3OC(C)(C)OC32)c(=O)[nH]c1=O (configuration not stated) | 33.7 | 17.9
O=C1OC2CCCC[C@@H]2C2C[C@]34CCCCC3[C@@H](C(=O)O4)C12 (some centres not stated) | > 100 | 
CN(C)c1cc[c]([Sn]([c]2ccc(N(C)C)cc2)([c]2ccc(N(C)C)cc2)[c]2ccc(N(C)C)cc2)cc1 | 17.4 | 3.68
CCCSc1nc(COC(=O)NC)c(COC(=O)NC)n1C | > 100 | 
O=C1CCC(O)=C1N=Nc1ccccc1 | 74.1 | 
C=C1CCC(CC[C@@H]2CC[C@]3(OC2)O[C@@]2(O)CC[C@]3(C)OC2(C)C)C(C)(C)[C@H]1C/C=C1/C(=O)OC[C@@H]1O (some centres not stated) | 3.8 | 
CCN(CC)c1ccc(N=Nc2ccc(-c3nc4ccc[n+](C)c4s3)cc2)cc1 | 26.6 | 
C[C@]12CC[C@@H]3c4cc(OCC(F)(F)F)c(O)cc4/C(=N/O)C[C@H]3[C@@H]1CC[C@@H]2O | 17.7 | 0.0243
NC(=O)NCc1c(C(N)=O)ncn1Cc1ccccc1 | > 100 | 
COc1cc(/C=C/c2ccc(OC)c(OC)c2)cc(OC)c1 | 63.5 | 
O=C1CSC(/C(=N/Nc2ccccc2)c2nc3ccccc3[nH]2)=N1 | > 100 | 
CN(C)CCN1C(=O)c2ccc3c4c(ccc(c24)C1=O)C(=O)N(CCN=C=S)C3=O | 0.211 | 0.071
O=C(c1ccccc1)C1OC12C(=O)Nc1ccccc12 (configuration not stated) | > 100 | 
COc1ccc2nc(NC(=O)C(=O)C(C#N)c3ccc([N+](=O)[O-])cc3)sc2c1 (configuration not stated) | > 100 | 

SMILES | TGI [µM] | GI50 [µM]
COc1cccc(C#Cc2ccccc2C#CCCCCO)c1 | 19.8 | 5.7
O=C(O)[C@H](NS(=O)(=O)c1ccc([N+](=O)[O-])cc1)c1ccccc1 | > 100 | 
S=C1OC2CCCC[C@H]2O1 (some centres not stated) | > 100 | 
CSC(C1c2ccccc2N(c2ccc(C)cc2)c2[nH]c(=O)n(C)c(=O)c21)S(=O)(=O)c1ccc(C)cc1 (configuration not stated) | > 100 | 
CCOC(=O)NC(=O)c1cn(CCCOC(=O)CCCCCCCCCCC(=O)OCCCn2cc(C(=O)NC(=O)OCC)c(=O)[nH]c2=O)c(=O)[nH]c1=O | > 100 | 
COc1cc(/C=C(\C#N)c2ccccc2)cc(OC)c1 | > 100 | 
N#Cc1cccnc1Cl | > 100 | 
CC(=O)N[C@H]1CSSC[C@@H](C(N)=O)NC(=O)[C@H](C(C)C)NC(=O)[C@H](C)NC(=O)[C@H](Cc2cnc[nH]2)NC1=O | > 100 | > 100
CCCCCCCCCCCC(=O)OCC1OC(OC)C(NC(=O)N(CCCl)N=O)C(O)C1O (configuration not stated) | 15.7 | 
C=CC/C=C/C/C=C/CCCCCCCc1cccc(O)c1C(=O)O | > 100 | 
COc1ccc(OC)c2c(C(=O)O)c(Cc3ccccc3)ccc12 | > 100 | 
O=C(Nc1c(Cl)cc([N+](=O)[O-])cc1Cl)C(=O)C(C1OC(=O)c2ccccc21)[N+](=O)[O-] (configuration not stated) | > 100 | 
Cc1c(C(=O)/C=C/c2ccccc2)[n+](=O)c2ccccc2n1[O-] | 28.6 | 
N#CC1CC2(C1)OCCS2 (configuration not stated) | > 100 | 
COc1cc(NC(C)CCCN)c2nccc(C)c2c1 (configuration not stated) | 35.8 | 
C1C[OH+]CC[OH+]CC[OH+]CC[OH+]CC[OH+]1.[Cl-].[V] | > 100 | 31.5
CCCCCCCCCCCCCCCCCCOc1ccccc1CC(=O)OCC[N+]1(C)CCCC1 | 3.33 | 1.63
CC(=O)C(=CN1CCN(C(=O)c2ccco2)C1=S)C(C)=O | 19.1 | 5.52

— PubChem BioAssay (NCI)
